Data: ChEMBL document CHEMBL3885881, “DrugMatrix”

Species: Rattus norvegicus
Experiment: DrugMatrix - Regimen: Daily Repeat
Assay type: toxicity, organism-based, Sprague-Dawley
Design: regimen Daily Repeat, gender Male, age 6-8 weeks
Settings: in vivo, po, route oral GAVAGE, […]; for ABSOLUTE BASOPHIL / ABSOLUTE EOSINOPHIL / ABSOLUTE LYMPHOCYTE / ABSOLUTE MONOCYTE / ABSOLUTE SEGMENTED NEUTROPHIL / BASOPHIL / EOSINOPHIL / ERYTHROCYTE COUNT / HEMATOCRIT / HEMOGLOBIN / LEUKOCYTE COUNT / LYMPHOCYTE / MEAN CORPUSCULAR HEMOGLOBIN / MEAN CORPUSCULAR HEMOGLOBIN CONCENTRATION / MEAN CORPUSCULAR VOLUME / MONOCYTE / NEUTROPHIL / NUCLEATED RED BLOOD CELLS / PLATELET COUNT: tissue Blood; for ALANINE AMINOTRANSFERASE / ALBUMIN / ALKALINE PHOSPHATASE / ASPARTATE AMINOTRANSFERASE / BLOOD UREA NITROGEN / CARBON DIOXIDE / CHLORIDE / CHOLESTEROL / CREATINE PHOSPHOKINASE / CREATININE / GLUCOSE / LACTATE DEHYDROGENASE / LIPASE / PHOSPHORUS / POTASSIUM / SODIUM / TOTAL BILIRUBIN / TOTAL PROTEIN / URIC ACID: tissue Plasma
[1] = 50 mg/kg, 120 h, dose level Low, time 5 day
[2] = 175 mg/kg, 72 h, dose level High, time 3 day
[3] = 175 mg/kg, 120 h, dose level High, time 5 day

With `Oc1ncnc2[nH]ncc12` [ALLOPURINOL] the “ABSOLUTE BASOPHIL” value [1] was 0 CELLS/uL, the “ABSOLUTE EOSINOPHIL” value [1] was 49 CELLS/uL and the “ABSOLUTE LYMPHOCYTE” value [1] was 17802 CELLS/uL. The “ABSOLUTE MONOCYTE” value [1] was 49 CELLS/uL, the “ABSOLUTE SEGMENTED NEUTROPHIL” value [1] was 1133.33 CELLS/uL and the BASOPHIL [1] was 0%. The EOSINOPHIL [1] was 0.33%, the “ERYTHROCYTE COUNT” value [1] was 5.63 x10E6/uL and the HEMATOCRIT [1] was 35.03%. The HEMOGLOBIN [1] was 13.73 G/DL, the “LEUKOCYTE COUNT” value [1] was 19.03 x10E3/uL and the LYMPHOCYTE [1] was 93%. The “MEAN CORPUSCULAR HEMOGLOBIN” value [1] was 24.47 pg, the “MEAN CORPUSCULAR HEMOGLOBIN CONCENTRATION” value [1] was 39.27 G/DL and the “MEAN CORPUSCULAR VOLUME” value [1] was 62.33 fL. The MONOCYTE [1] was 0.33%, the NEUTROPHIL [1] was 6.33% and the “NUCLEATED RED BLOOD CELLS” value [1] was 0 /100WBC. For the same compound, the “PLATELET COUNT” value [1] was 1236.33 x10E3/uL, the “ALANINE AMINOTRANSFERASE” value [1] was 56.33 u/L and the ALBUMIN [1] was 3.97 G/DL. The “ALKALINE PHOSPHATASE” value [1] was 308 u/L, the “ASPARTATE AMINOTRANSFERASE” value [1] was 104 u/L and the “BLOOD UREA NITROGEN” value [1] was 20 mg/dL. For the same compound, the “CARBON DIOXIDE” value [1] was 27 mmol/L, the CHLORIDE [1] was 100 MEQ/L and the CHOLESTEROL [1] was 65.33 mg/dL. The “CREATINE PHOSPHOKINASE” value [1] was 626 u/L, the CREATININE [1] was 0.41 mg/dL and the GLUCOSE [1] was 169.33 mg/dL. The “LACTATE DEHYDROGENASE” value [1] was 263.33 u/L, the LIPASE [1] was 10 u/L and the PHOSPHORUS [1] was 9.7 mg/dL. The POTASSIUM [1] was 5.66 MEQ/L, the SODIUM [1] was 141.17 MEQ/L and the “TOTAL BILIRUBIN” value [1] was 0.2 mg/dL. For the same compound, the “TOTAL PROTEIN” value [1] was 5.6 G/DL, the “URIC ACID” value [1] was 0.83 mg/dL and the “ABSOLUTE BASOPHIL” value [2] was 0 CELLS/uL. For the same compound, the “ABSOLUTE EOSINOPHIL” value [2] was 0 CELLS/uL, the “ABSOLUTE LYMPHOCYTE” value [2] was 8294 CELLS/uL and the “ABSOLUTE MONOCYTE” value [2] was 350.5 CELLS/uL. The “ABSOLUTE SEGMENTED NEUTROPHIL” value [2] was 4205.5 CELLS/uL, the BASOPHIL [2] was 0% and the EOSINOPHIL [2] was 0%. The “ERYTHROCYTE COUNT” value [2] was 5.27 x10E6/uL, the HEMATOCRIT [2] was 32.2% and the HEMOGLOBIN [2] was 12.95 G/DL. For the same compound, the “LEUKOCYTE COUNT” value [2] was 12.85 x10E3/uL, the LYMPHOCYTE [2] was 64% and the “MEAN CORPUSCULAR HEMOGLOBIN” value [2] was 24.55 pg. The “MEAN CORPUSCULAR HEMOGLOBIN CONCENTRATION” value [2] was 40.3 G/DL, the “MEAN CORPUSCULAR VOLUME” value [2] was 61.1 fL and the MONOCYTE [2] was 3%. For the same compound, the NEUTROPHIL [2] was 33%, the “NUCLEATED RED BLOOD CELLS” value [2] was 0 /100WBC and the “PLATELET COUNT” value [2] was 1127 x10E3/uL. The “ALANINE AMINOTRANSFERASE” value [2] was 101 u/L, the ALBUMIN [2] was 3.9 G/DL and the “ALKALINE PHOSPHATASE” value [2] was 397.5 u/L. The “ASPARTATE AMINOTRANSFERASE” value [2] was 153.5 u/L, the “BLOOD UREA NITROGEN” value [2] was 113.5 mg/dL and the “CARBON DIOXIDE” value [2] was 24.5 mmol/L. The CHLORIDE [2] was 93 MEQ/L, the CHOLESTEROL [2] was 99 mg/dL and the “CREATINE PHOSPHOKINASE” value [2] was 283.5 u/L. The CREATININE [2] was 3.31 mg/dL, the GLUCOSE [2] was 154.5 mg/dL and the “LACTATE DEHYDROGENASE” value [2] was 217.5 u/L. For the same compound, the LIPASE [2] was 12 u/L, the PHOSPHORUS [2] was 16.65 mg/dL and the POTASSIUM [2] was 6.46 MEQ/L. The SODIUM [2] was 141.2 MEQ/L, the “TOTAL BILIRUBIN” value [2] was 0.35 mg/dL and the “TOTAL PROTEIN” value [2] was 6.55 G/DL. The “URIC ACID” value [2] was 0.2 mg/dL, the “ABSOLUTE BASOPHIL” value [3] was 0 CELLS/uL and the “ABSOLUTE EOSINOPHIL” value [3] was 81.33 CELLS/uL. For the same compound, the “ABSOLUTE LYMPHOCYTE” value [3] was 15570.33 CELLS/uL, the “ABSOLUTE MONOCYTE” value [3] was 599.67 CELLS/uL and the “ABSOLUTE SEGMENTED NEUTROPHIL” value [3] was 6148.67 CELLS/uL. The BASOPHIL [3] was 0%, the EOSINOPHIL [3] was 0.33% and the “ERYTHROCYTE COUNT” value [3] was 5.7 x10E6/uL. The HEMATOCRIT [3] was 35.5%, the HEMOGLOBIN [3] was 13.77 G/DL and the “LEUKOCYTE COUNT” value [3] was 22.4 x10E3/uL. For the same compound, the LYMPHOCYTE [3] was 69.33%, the “MEAN CORPUSCULAR HEMOGLOBIN” value [3] was 24.17 pg and the “MEAN CORPUSCULAR HEMOGLOBIN CONCENTRATION” value [3] was 38.8 G/DL. The “MEAN CORPUSCULAR VOLUME” value [3] was 62.27 fL, the MONOCYTE [3] was 2.67% and the NEUTROPHIL [3] was 27.67%. The “NUCLEATED RED BLOOD CELLS” value [3] was 0 /100WBC, the “PLATELET COUNT” value [3] was 1373 x10E3/uL and the “ALANINE AMINOTRANSFERASE” value [3] was 78.67 u/L. The ALBUMIN [3] was 3.73 G/DL, the “ALKALINE PHOSPHATASE” value [3] was 409 u/L and the “ASPARTATE AMINOTRANSFERASE” value [3] was 102 u/L. The “BLOOD UREA NITROGEN” value [3] was 46.33 mg/dL, the “CARBON DIOXIDE” value [3] was 26.33 mmol/L and the CHLORIDE [3] was 105.33 MEQ/L. The CHOLESTEROL [3] was 83.67 mg/dL, the “CREATINE PHOSPHOKINASE” value [3] was 242.33 u/L and the CREATININE [3] was 1.36 mg/dL. For the same compound, the GLUCOSE [3] was 145 mg/dL, the “LACTATE DEHYDROGENASE” value [3] was 182.33 u/L and the LIPASE [3] was 10.33 u/L. The PHOSPHORUS [3] was 7.7 mg/dL, the POTASSIUM [3] was 6.87 MEQ/L and the SODIUM [3] was 149 MEQ/L. For the same compound, the “TOTAL BILIRUBIN” value [3] was 0.2 mg/dL, the “TOTAL PROTEIN” value [3] was 5.87 G/DL and the “URIC ACID” value [3] was 0.2 mg/dL.
